Reference: patent publication US20030040644A1, “Synthesis of nitroalcohol diastereomers” (Pharm-Eco Laboratories, Inc., priority 1999, published 2003)
Values joined by “and” are separate entries in the source; they are usually repeats but may differ in a detail not shown here. Equal values may be shown once.

Assay: Solubility of the diastereomers in several solvent systems (mobile phases)
Format: physicochemical
Description: In order to have a concentrated sample for loading on the simulated moving bed separation system, a high degree of solubility in the mobile phase to be used for the separation is desirable. Therefore, the solubility of the 1-nitro-3-benzyl-3-(N-ethoxycarbonyl)amino-2-propanol diastereomers in several solvent systems was determined.

SMILES: CCOC(=O)NC(Cc1ccccc1)C(O)C[N+](=O)[O-] (single isomer, unassigned) [1-nitro-3-benzyl-3-benzyl-3-(N-ethoxycarbonyl)amino-2-propanol diastereomers, 1-nitro-3-benzyl-3-(N-ethoxycarbonyl)amino-2-propanol]
- % Solubility (mobile phase 10% ethyl acetate/90% methylene chloride): 3.8%
- % Solubility (mobile phase 40% water/60% methanol): 1.7%
- % Solubility (mobile phase 50% heptane/50% THF): 20%
- % Solubility (mobile phase 50% heptane/50% ethyl acetate): 3.81%
- % Solubility (mobile phase 50% methanol/50% THF): 78%
- % Solubility (mobile phase 60% water/40% acetonitrile): 3.29%
- % Solubility (mobile phase 70% heptane/30% THF): 4%
- % Solubility (mobile phase 70% heptane/30% ethanol): 20%
- % Solubility (mobile phase 70% heptane/30% ethyl acetate): 1.11% and 1.09% and 1.31%
- % Solubility (mobile phase 70% heptane/30% isopropanol): 0.36%
- % Solubility (mobile phase 80% heptane/20% ethanol): 0.31% and 1.86%
- % Solubility (mobile phase 80% toluene/20% THF): 6%
- % Solubility (mobile phase 100% methanol): 40%
